One assay deals with HER-2 (Homo sapiens (Human), UniProt P04626). The assay can be described thus: In vitro kinase inhibition assay, HER2 (ADP-Glo Kinase Assay). The assay is classed as biochemical. From the text:
(§1) RTK's play essential roles in regulation of cell proliferation, differentiation, survival and apoptosis. Aberrant expression of RTK results in cell growth dysfunction leading to tumor takeover, angiogenesis, and metastasis. They also produce their actions in a synergistic pattern in regulating tumor response to different anticancer RTK inhibitor drug therapies. […] The procedure of the used kits was done according to the manufacturer's instructions.

For a further assay, the target named is PDGFR-β (Homo sapiens (Human), UniProt P09619). The assay can be described thus: In vitro kinase inhibition assay, PDGFR-β. The assay is classed as biochemical.
Excerpt: as §1

For the next assay, the system named is normal WI38 cells. The assay can be described thus: MTT assay against normal WI38 cells (safety profile). As to conditions: for IC50 against WI38 cells, fold higher than IC50 against MCF-7 cancer cells: WI38 vs MCF-7; for IC50 against WI38 cells relative to IC50 of staurosporine: vs reference drug staurosporine. In kind it is cell-based. Here is the method: (§2) For this purpose, cells suspended in the medium (2×10^4 cells/mL) were plated in 96-well culture plates and incubated at 37° C. in a 5% CO2 incubator. After 12 h, the test sample ([…]) was added to the cells (2×10^4) in 96-well plates and cultured at 37° C. for 3 days. The cultured cells were mixed with 20 μL (microlitre) of MTT solution and incubated for 4 h at 37° C. The supernatant was carefully removed from each well and […] of DMSO were added to each well to dissolve the formazan crystals which were formed by the cellular reduction of MTT. After mixing with a mechanical plate mixer, the absorbance of each well was measured by a microplate reader using a test wavelength of 570 nm (nanometers). […] Each experiment was performed at least 3 times.
One of the features that differentiates various antiproliferative therapeutic agents from each other is the recurrence and severity of their side effects to the normal cells at their therapeutic doses. Accordingly, the safety profile of the most promising candidates (4b, 4j, 4k, and 4e) was evaluated against the normal WI38 cells derived from lung tissues using MTT assay.

A further assay has as its target VEGFR-2 (Homo sapiens (Human), UniProt P35968). The assay can be described thus: In vitro kinase inhibition assay, VEGFR2 (KDR) Kinase Assay Kit. In kind it is biochemical. As to conditions: for VEGFR-2 inhibitory effect, fold less than Sorafenib: vs Sorafenib.
Excerpt: as §1

The test system of assay [1] is human breast cancer MCF-7 cell line. The assay can be described thus: MTT cell viability assay against MCF-7 cells. As to conditions: vs standard drug staurosporine. In kind it is cell-based. Here is the method:
as §2

The target of a further assay is EGFR (Homo sapiens (Human), UniProt P00533). The assay can be described thus: In vitro kinase inhibition assay, EGFR (Abcam Human In cell ELISA Kit). In kind it is biochemical.
Excerpt: as §1

For another assay, the system named is MCF-7 cancer cells. The assay can be described thus: Annexin-V/PI apoptosis assay, flow cytometry. In kind it is cell-based, human. As to conditions: MCF-7, compound at IC50 concentration, 24 h; control 0.66%. From the text:
Flow cytometry method has been used to detect the corresponding red (PI) and green (FITC) fluorescence.
The induction of apoptosis is one of the most crucial tools that confirm the effectiveness of cancer therapy. Cell cycle checkpoints are G1 (restriction or start), S ([…]), and G2/M. One of the main functions of the anticancer therapeutics is stoppage of the cell division at these checkpoints. […] The cells were stained with Annexin V/PI and examined using flow cytometry procedure. For cell cycle analysis, cell pellets were fixed with 70% ethanol on ice for 15 min. and collected again. The collected pellets were incubated with propidium iodide (PI) staining solution ([…] PI, 0.1 mg/mL RNaseA, 0.05% Triton X-100) at room temperature for 1 hand analyzed by Gallios flow cytometer (Beckman Coulter, Brea, CA, USA). Apoptosis detection was performed by FITC Annexin V/PI commercial kit (Becton Dickenson, Franklin Lakes, N.J., USA) following the manufacture protocol. The samples were analyzed by fluorescence-activated cell sorting (FACS) with a Gallios flow cytometer (Beckman Coulter, Brea, Calif., USA) within 1 h after staining Data were analyzed using Kaluzav 1.2 (Beckman Coulter).
For orientation: Flow cytometry measures light scatter and fluorescence of single cells or particles in a stream.

[2] abbreviates: unit mM, read-out: EGFR IC50 (converted).

Like-named read-outs stand apart in the source and are kept apart here.

Chain of VEGFR-2 (P35968 20-1356): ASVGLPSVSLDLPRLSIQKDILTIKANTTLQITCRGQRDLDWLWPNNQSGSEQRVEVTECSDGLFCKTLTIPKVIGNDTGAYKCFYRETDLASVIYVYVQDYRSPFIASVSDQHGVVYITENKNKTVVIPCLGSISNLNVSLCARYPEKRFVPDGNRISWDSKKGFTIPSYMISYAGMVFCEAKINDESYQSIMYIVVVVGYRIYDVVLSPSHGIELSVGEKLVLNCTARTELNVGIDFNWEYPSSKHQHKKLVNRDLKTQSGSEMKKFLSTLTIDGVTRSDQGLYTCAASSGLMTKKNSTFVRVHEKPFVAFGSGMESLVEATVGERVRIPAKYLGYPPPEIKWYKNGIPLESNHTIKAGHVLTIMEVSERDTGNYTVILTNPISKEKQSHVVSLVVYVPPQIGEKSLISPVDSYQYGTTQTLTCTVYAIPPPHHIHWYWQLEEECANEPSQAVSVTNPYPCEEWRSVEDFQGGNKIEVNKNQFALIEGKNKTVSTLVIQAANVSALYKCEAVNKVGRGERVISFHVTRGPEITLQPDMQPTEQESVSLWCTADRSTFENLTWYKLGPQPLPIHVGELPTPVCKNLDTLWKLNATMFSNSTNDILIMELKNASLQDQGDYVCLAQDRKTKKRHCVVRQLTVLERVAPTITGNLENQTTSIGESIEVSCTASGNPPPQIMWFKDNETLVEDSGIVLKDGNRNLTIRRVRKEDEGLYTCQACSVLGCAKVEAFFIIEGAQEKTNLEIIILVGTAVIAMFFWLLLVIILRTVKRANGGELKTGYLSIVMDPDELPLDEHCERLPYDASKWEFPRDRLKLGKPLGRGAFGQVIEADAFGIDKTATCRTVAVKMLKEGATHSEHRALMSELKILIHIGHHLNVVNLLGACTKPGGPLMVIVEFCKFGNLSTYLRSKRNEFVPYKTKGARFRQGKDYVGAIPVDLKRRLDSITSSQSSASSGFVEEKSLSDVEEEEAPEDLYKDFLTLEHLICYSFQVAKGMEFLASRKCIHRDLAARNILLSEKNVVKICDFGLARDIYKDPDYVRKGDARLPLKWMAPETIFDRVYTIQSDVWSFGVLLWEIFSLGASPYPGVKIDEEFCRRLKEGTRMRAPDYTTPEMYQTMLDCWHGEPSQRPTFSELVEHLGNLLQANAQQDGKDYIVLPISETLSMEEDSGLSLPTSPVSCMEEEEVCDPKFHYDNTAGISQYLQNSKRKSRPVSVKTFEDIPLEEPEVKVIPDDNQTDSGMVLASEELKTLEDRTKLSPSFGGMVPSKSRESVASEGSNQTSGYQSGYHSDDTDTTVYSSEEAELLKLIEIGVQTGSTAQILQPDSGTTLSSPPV
Chain of EGFR (P00533 25-1210): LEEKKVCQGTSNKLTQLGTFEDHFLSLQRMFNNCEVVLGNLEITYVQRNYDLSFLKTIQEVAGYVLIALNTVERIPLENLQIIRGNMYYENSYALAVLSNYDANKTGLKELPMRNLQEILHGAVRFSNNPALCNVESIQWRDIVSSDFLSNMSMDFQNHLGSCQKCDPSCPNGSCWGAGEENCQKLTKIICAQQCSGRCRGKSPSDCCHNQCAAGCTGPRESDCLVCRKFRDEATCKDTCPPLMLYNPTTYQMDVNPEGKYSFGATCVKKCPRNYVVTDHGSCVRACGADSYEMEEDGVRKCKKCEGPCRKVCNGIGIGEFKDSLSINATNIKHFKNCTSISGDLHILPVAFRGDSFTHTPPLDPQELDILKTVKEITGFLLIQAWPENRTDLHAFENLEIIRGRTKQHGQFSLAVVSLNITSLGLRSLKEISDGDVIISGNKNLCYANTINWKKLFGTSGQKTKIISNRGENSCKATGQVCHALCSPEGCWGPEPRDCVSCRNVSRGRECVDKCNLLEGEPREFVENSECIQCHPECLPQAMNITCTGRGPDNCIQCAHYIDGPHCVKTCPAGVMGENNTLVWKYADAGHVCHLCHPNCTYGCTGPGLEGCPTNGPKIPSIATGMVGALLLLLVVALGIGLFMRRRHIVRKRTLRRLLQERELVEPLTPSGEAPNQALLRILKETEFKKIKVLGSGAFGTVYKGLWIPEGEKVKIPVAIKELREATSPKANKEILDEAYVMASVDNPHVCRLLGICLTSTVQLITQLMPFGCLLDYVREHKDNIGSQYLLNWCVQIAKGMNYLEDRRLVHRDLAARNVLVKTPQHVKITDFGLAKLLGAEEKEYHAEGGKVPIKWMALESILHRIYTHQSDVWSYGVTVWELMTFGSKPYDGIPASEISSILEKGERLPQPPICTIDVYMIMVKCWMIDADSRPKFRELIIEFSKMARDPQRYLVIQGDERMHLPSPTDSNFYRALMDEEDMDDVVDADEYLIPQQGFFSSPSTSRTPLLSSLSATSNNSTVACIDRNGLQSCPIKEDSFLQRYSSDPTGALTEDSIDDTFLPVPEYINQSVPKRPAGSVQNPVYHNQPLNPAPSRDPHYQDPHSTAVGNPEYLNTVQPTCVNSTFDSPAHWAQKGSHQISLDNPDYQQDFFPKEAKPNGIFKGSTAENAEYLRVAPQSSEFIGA
Chain of PDGFR-β (P09619 33-1106, species assumed): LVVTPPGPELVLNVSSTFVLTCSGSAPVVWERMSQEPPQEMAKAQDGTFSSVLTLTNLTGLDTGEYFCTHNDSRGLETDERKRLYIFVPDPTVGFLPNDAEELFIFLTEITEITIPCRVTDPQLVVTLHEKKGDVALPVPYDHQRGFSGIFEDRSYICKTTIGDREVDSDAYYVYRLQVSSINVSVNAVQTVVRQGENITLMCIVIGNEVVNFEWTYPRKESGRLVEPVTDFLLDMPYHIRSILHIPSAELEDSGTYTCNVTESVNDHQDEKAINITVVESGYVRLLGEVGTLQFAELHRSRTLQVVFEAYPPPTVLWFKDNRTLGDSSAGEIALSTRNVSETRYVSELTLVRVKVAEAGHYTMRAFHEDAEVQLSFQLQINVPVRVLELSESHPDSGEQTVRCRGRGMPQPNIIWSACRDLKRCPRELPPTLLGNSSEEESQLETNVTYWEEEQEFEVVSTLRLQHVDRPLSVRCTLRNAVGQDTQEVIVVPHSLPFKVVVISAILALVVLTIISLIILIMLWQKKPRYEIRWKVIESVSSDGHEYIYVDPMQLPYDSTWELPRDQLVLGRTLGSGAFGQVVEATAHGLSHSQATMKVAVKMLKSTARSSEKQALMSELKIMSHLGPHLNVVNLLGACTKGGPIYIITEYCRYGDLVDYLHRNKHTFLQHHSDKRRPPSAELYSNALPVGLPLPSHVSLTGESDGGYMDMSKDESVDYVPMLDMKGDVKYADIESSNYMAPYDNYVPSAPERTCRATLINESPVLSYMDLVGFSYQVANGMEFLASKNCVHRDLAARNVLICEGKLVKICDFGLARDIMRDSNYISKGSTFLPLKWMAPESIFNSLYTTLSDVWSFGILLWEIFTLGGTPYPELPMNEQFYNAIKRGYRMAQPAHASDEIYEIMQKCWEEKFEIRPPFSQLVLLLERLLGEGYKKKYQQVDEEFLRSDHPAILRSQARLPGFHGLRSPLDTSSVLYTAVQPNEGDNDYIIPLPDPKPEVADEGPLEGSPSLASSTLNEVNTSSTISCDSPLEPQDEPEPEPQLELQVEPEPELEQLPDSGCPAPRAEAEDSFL
Chain of HER-2 (P04626 23-1255): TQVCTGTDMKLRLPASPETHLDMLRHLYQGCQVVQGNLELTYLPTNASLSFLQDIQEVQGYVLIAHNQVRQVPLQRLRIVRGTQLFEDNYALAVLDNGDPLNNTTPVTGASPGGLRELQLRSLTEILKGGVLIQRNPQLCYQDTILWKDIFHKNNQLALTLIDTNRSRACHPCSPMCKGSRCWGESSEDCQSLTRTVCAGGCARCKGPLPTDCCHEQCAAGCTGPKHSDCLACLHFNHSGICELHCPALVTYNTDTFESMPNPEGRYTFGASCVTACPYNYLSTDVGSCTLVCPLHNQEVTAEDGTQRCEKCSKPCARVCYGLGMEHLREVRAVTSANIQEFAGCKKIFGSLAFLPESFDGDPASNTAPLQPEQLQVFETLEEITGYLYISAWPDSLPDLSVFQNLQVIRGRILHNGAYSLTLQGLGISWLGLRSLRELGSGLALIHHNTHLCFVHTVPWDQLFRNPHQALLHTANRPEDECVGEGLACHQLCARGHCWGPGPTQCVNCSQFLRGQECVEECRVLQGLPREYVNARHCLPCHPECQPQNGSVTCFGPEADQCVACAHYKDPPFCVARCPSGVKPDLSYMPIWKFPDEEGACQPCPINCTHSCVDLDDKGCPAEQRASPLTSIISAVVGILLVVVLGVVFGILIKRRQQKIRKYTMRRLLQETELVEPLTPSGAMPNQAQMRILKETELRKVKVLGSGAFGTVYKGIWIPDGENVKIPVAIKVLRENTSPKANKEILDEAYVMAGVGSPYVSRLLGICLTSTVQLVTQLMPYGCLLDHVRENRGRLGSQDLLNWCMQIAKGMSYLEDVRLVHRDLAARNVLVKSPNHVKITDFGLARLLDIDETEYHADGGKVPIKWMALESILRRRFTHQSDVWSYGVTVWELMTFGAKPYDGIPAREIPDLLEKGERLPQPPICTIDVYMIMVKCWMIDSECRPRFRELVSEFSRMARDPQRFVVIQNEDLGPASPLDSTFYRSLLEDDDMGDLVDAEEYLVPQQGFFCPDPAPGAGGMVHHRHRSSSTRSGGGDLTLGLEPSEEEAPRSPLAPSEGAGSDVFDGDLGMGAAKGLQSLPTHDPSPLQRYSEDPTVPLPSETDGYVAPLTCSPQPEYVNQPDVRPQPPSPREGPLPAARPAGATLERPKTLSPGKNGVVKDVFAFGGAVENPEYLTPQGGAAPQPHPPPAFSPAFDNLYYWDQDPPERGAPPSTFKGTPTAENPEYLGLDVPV

Usually IC50 stands for the concentration that gives 50% inhibition. Consider `CCOC(=O)C1=C(C(F)(F)F)NC2=C(C(=O)CC(C)(C)C2)C1c1ccc(S(=O)(=O)c2ccccc2)cc1` (stereo not shown) [Compound 4b, ethyl 7,7-dimethyl-5-oxo-4-(4-(phenylsulfonyl)phenyl)-2-(trifluoromethyl)-1,4,5,6,7,8-hexahydroquinoline-3-carboxylate], for which the IC50 on HER-2 (Table 4, read-out: HER-2 IC50 (converted)) is 0.562 nM; at PDGFR-β (Table 4), 0.394 nM; at VEGFR-2 (Table 4) it was 1.97 nM; at EGFR (setting [2]) it was 110 nM. Besides, the “IC50 against WI38 cells, fold higher than IC50 against MCF-7 cancer cells” value with normal WI38 cells is reported as 24 fold. The “IC50 against WI38 cells relative to IC50 of staurosporine” value in the assay with normal WI38 cells is on record as “about 3 fold”. In addition, at VEGFR-2, the “VEGFR-2 inhibitory effect, fold less than Sorafenib” value is reported as “about 6.2 fold”. Moreover, the “fold more potent activity than staurosporine (MCF-7)” value in assay [1] was “about 2.5 fold”.
For the compound `CC1(C)CC(=O)C2=C(C1)NC(N)=C(C(=O)c1ccccc1)C2c1ccc(S(=O)(=O)c2ccccc2)cc1` (stereo not shown) [Compound 4d, 2-amino-3-benzoyl-7,7-dimethyl-4-(4-(phenylsulfonyl)phenyl)-4,6,7,8-tetrahydroquinolin-5(1H)-one], in assay [1], the “fold less potent than the standard drug staurosporine (MCF-7)” value amounted to 1.4 fold.
As for `Cc1ccc(C(=O)C2=C(N)NC3=C(C(=O)CC(C)(C)C3)C2c2ccc(S(=O)(=O)c3ccccc3)cc2)cc1` (stereo not shown) [Compound 4e, 2-amino-7,7-dimethyl-3-(4-methylbenzoyl)-4-(4-(phenylsulfonyl)phenyl)-4,6,7,8-tetrahydroquinolin-5(1H)-one], in the assay on normal WI38 cells, the “IC50 against WI38 cells, fold higher than IC50 against MCF-7 cancer cells” value was 4 fold and the “IC50 against WI38 cells relative to IC50 of staurosporine” value is given as “approximately equal”. Besides, in assay [1], the “fold more potent activity than staurosporine (MCF-7)” value is recorded as 1-1.6 fold.
Turning to `Cc1ccc(S(=O)(=O)c2ccc(C3C(C(=O)c4ccccc4)=C(N)NC4=C3C(=O)CC(C)(C)C4)cc2)cc1` (stereo not shown) [Compound 4j, 2-amino-3-benzoyl-7,7-dimethyl-4-(4-tosylphenyl)-4,6,7,8-tetrahydroquinolin-5(1H)-one], the IC50 was 170 ± 20 nM at HER-2 (Table 4, heading: HER-2 IC50, read-out: HER-2 IC50 (converted)); 171 nM at HER-2 (differs from Table 4, read-out: HER-2 IC50 (converted)); 170 nM at HER-2 (unit mM, read-out: HER-2 IC50 as restated in text); 0.133 nM on PDGFR-β (Table 4); 81.6 nM on PDGFR-β (differs from Table 4); 0.57 nM on VEGFR-2 (Table 4). The IC50 is 304 nM on VEGFR-2 (differs from Table 4); 70 ± 20 nM on EGFR (EGFR IC50, Table 4, heading: EGFR IC50); 77.4 nM at EGFR (differs from Table 4, read-out: EGFR IC50 (converted)); 70 nM at EGFR (setting [2]). In the assay on MCF-7 cancer cells, this compound gave a necrosis percent of 4.2%. In addition, the “PDGFR-β inhibition, fold more than reference sorafenib” value on PDGFR-β is 0.7 fold. The “PDGFR-a inhibition, fold more than reference sorafenib” value at PDGFR-β (text b141 prints PDGFR-a) was determined as 1.9 fold. Moreover, the “IC50 against WI38 cells, fold higher than IC50 against MCF-7 cancer cells” value with normal WI38 cells is reported as 20 fold. The “IC50 against WI38 cells relative to IC50 of staurosporine” value with normal WI38 cells is recorded as “about 3 fold”. For the same compound, the “VEGFR-2 inhibitory effect, fold less than Sorafenib” value at VEGFR-2 is recorded as ~1.8 fold. Moreover, in assay [1], the “fold more potent activity than staurosporine (MCF-7)” value is 1-1.6 fold.
Consider `Cc1ccc(C(=O)C2=C(N)NC3=C(C(=O)CC(C)(C)C3)C2c2ccc(S(=O)(=O)c3ccc(C)cc3)cc2)cc1` (stereo not shown) [Compound 4k, 2-amino-7,7-dimethyl-3-(4-methylbenzoyl)-4-(4-tosylphenyl)-4,6,7,8-tetrahydroquinolin-5(1H)-one], for which, in the assay with normal WI38 cells, the “IC50 against WI38 cells, fold higher than IC50 against MCF-7 cancer cells” value is recorded as 4 fold and the “IC50 against WI38 cells relative to IC50 of staurosporine” value is “approximately equal”. In assay [1], the “fold more potent activity than staurosporine (MCF-7)” value was 1-1.6 fold.
Regarding `Cc1ccc(S(=O)(=O)c2ccc(C3C(C(=O)c4ccc(Br)cc4)=C(N)NC4=C3C(=O)CC(C)(C)C4)cc2)cc1` (stereo not shown) [Compound 4l, 2-amino-3-(4-bromobenzoyl)-7,7-dimethyl-4-(4-tosylphenyl)-4,6,7,8-tetrahydroquinolin-5(1H)-one], in assay [1], the “fold less potent than the standard drug staurosporine (MCF-7)” value amounted to 1.4 fold.
In turn, `CN[C@@H]1C[C@H]2O[C@@](C)([C@@H]1OC)n1c3ccccc3c3c4c(c5c6ccccc6n2c5c31)C(=O)NC4` [Staurosporine, reference compound] yielded an IC50 in the assay with normal WI38 cells (MTT, normal lung-derived cells) of 13 ± 2 nM.

The values are drawn from patent US11505527B1, “Tetrahydroquinoline derivatives and a process of preparation thereof” (King Abdulaziz University, priority 2022, dated 2022).
